# Results reported in US20190298745A1, “COMPOSITION FOR CONTROLLING SECRETION OF PROSTASOMES AND USE THEREOF” (Industrial Cooperation Foundation Chonbuk National, priority 2018, published 2019).
# Entries after “also recorded” stand apart in the source; their conditions may differ.
# Legend:
# [1] = tested on: DU-145, human prostate cancer cell line; assay: Western blotting of prostasome (exosomal) marker proteins in prostasomes from culture supernatant; format: cell-based
# Procedure: Specifically, the prostate cancer cell line DU-145 were cultured in DMEM (GIBCO/Invitrogen, USA) supplemented with 10% exosome-free FBS (GIBCO/Invitrogen, USA) and 1% antibiotics-antimycotic (GIBCO/Invitrogen, USA) under the conditions of 37° C. and 5% CO2. The cell culture was collected and centrifuged at 3,000 rpm for 30 minutes to separate the supernatant. The supernatant was centrifuged at 15,000×g for 20 minutes using a Beckman's high-speed centrifuge, and the supernatant was separated again. The supernatant was centrifuged at 105,000×g for 2 hours using a high-speed centrifuge to obtain a precipitate. The collected precipitate was resuspended in the same buffer. The first eluted fraction was collected using sephadex G-200 (Sigma, USA), centrifuged again, and then suspended for use. 20 μg of protein was inactivated in 5× sample buffer at 100° C. for 5 minutes and then electrophoresed on a 10% SDS polyacrylamide gel. The separated proteins were transferred to a PVDF membrane and blocked in 2% BSA for 90 minutes. The respective HSP70, β-actin, Rab5 and LAMP1 antibodies were placed overnight at 4° C. in a ratio of 1:1,000 and then washed three times for 10 minutes with tris-buffered saline Tween-20 (TBST) buffer. The secondary antibodies were diluted at a ratio of 1:1,000 and allowed to adhere at room temperature for 2 hours. The membranes washed three times for 15 minutes with TBST buffer were treated with ECL (Bio-Rad, USA), and the amount of the protein expression was measured with LAS-500 (GE Healthcare Life Science, USA). DU-145, prostate cancer cell line, was treated with KCl, which induces cell membrane depolarization. Western blotting was performed to identify changes in prostasome-related protein expression. Specifically, the cells were cultured with KCl at various concentrations (0, 5, 10, 25, 50 and 100 mM) for 1 hour, and prostasomes were prepared from the culture supernatant by the method described in Experimental Example 1 and subjected to Western blotting. Further, cells were cultured with 25 mM KCl for various times (0, 10, 30, 60, 120 and 180 minutes) and subjected to Western blotting. The results are illustrated in FIG. 1. Furthermore, DU-145, human prostate cancer cell line was pretreated with a regulator of intracellular calcium (Ca^2+) signaling second messenger to analyze the change in the prostasome-related protein expression. Specifically, DU-145 cells were treated with various antagonists (regulator of intracellular calcium signaling second messenger) such as 100 μg/ml heparin (selective IP3 receptor inhibitor), 50 μM 8-Br-cADPR (antagonist of cADPR) and 1 μM NED-19 (antagonist of NAADP) together with 25 mM KCl. Prostasomes were prepared from the culture supernatant by the method described in Experimental Example 1, and Western blotting was performed. All antagonists were preincubated for 30 minutes before KCl treatment, and the cells were cultured for an additional 1 hour after KCl treatment. The results are illustrated in FIG. 3. Capsaicin (Sigma Aldrich, Mo., USA), which induces intracellular calcium (Ca^2+) signaling, was used to confirm the change in prostasome-related protein expression according to capsaicin treatment in DU-145, human prostate cancer cell line by Western blot. Specifically, the cells were cultured with capsaicin at various concentrations (0, 12.5, 25, 50, 100 and 200 μM) for 3 hours, and prostasomes were prepared from the culture supernatant by the method described in Example 2 and subjected to Western blotting, The cells were also cultured with 50 μM capsaicin for various times (0, 10, 30, 60, […], 120 and 180 minutes) and subjected to Western blotting. The results are illustrated in FIG. 4.
# C57BL/6 mice = assay: In vivo fertilization test in mice (number of pups); parameters: species or system mouse; conditions: male C57BL/6 mice, 50 mg/kg intraperitoneally twice daily for 2 weeks, then mating 1:1 for 48 hours; FIG. 7
# Procedure: The number of pups was measured in the mouse breeding process to confirm the increase of reproductive ability due to the promotion of the prostasome secretion (Nambu University's animal test approval number #201604), 7-week-old male C57BL/6 mice were randomly assigned into three groups and adapted to the breeding conditions. The groups were divided into the normal untreated group, the solvent-[…] group, and the capsaicin-treated group. Capsaicin was prepared at a high concentration (100-fold) in DMSO, then diluted in phosphate buffered saline (PBS, pH 7.2), and used as an injection. In the solvent-treated group, PBS (200 μl) diluted with the same volume of DMSO was administered. Twice daily capsaicin (50 mg/kg) and placebo were intraperitoneally injected into each experimental group for 2 weeks. Then, each mouse was caged with a female c57BL/6 mouse adapted for the same breeding condition, mating them at a ratio of 1:1 for 48 hours. The mating started at 6 pm, and the mating success was evaluated by confirming that the plaque was formed at the vaginal entrance at 9:00 am, but it was maintained for 48 hours considering the possibility of premature dropping. Then, only the female was separated from each cage, and the separate breeding was performed for each group. After the gestation period (about 21 days), the number of pups was counted. […]
# [2] = tested on: DU-145, human prostate cancer cell line; assay: Intracellular calcium measurement (fluo-3, confocal microscopy); format: cell-based; conditions: for continuous increase of [Ca2+]i by KCl treatment: pretreatment with antagonist before KCl, FIG. 2B-D
# Procedure: DU-145, human prostate cancer cell line, was pretreated with a regulator of intracellular calcium (Ca^2+) signaling second messenger, and the intracellular calcium signaling pattern thereof was analyzed. The concentration of intracellular calcium was measured by the following method: A cell suspension pretreated with a fluo-3 (molecular probe, USA) was titrated in a confocal dish (SPL, Seoul, Korea) coated with poly-L-lysine (Sigma-Aldrich, USA) and reacted for 20 minutes in a CO2 incubator to attach the cells. Then, the intracellular calcium amount was measured by a confocal microscopy system of Nikon Co, using the method of Tsien et al. (Tsien et al., Nature 295, 68-71 (1982)), and the results are illustrated in FIG. 2.
# mouse sperms = assay: Sperm motility test (CASA) of sperms fused with prostasomes from PPECs; format: cell-based; conditions: sperms fused with PPECs-derived prostasomes (with or without pretreatment of the prostate cells), vs no fusion; FIG. 5
# Procedure: The prostasomes of the mouse were obtained by incising the mouse abdominal cavity and obtaining the prostate under the bladder through microsurgery (Drost et al, 2016, Nat Protoc. 11(2): 347-358). Later, the effluent from the prostate gland was collected from the prostate and diluted using BWW (Bigger, Whitten, arid Whittingham) medium [10 mM Hepes, 20 mM sodium lactate, 5 mM glucose, 0.25 mM sodium pyruvate, penicillin G (80 mg/L), streptomycin sulfate (50 mg/L), 95 mM NaCl, 4.8 mM KCl, 1.3 mM CaCl2, 1.2 mM KH2PO4, and 1.2 mM MgSO4 in 25 mM NaHCO3 buffer, pH 7.4]). The supernatant was used to collect prostasomes by the same method as described above.
# To collect mouse sperms which are not fused with prostasomes, the tail epididymis of a male mouse was surgically removed, and blood and adipose tissue were removed using ophthalmic scissors. The epididymis was punctured with a 30 gauge sterilized needle and pinched by tweezers to release a large number of sperms. […]
# Specifically, the isolated sperms were diluted with a weak alkaline buffer with 0.32 M sucrose or binding buffer 150 mM NaCl, 1 mM CaCl2, 1 mM MgCl2, 5 mM glucose with 2 mM Hepes (pH 8.0)/20 mM MES (pH 5.0, binding buffer). […] The sperm motility rate was measured using a computer assisted sperm analysis (CASA) device (IVOS, Hamilton Thorne Biosciences, USA). […]
# mouse oocytes = assay: In vitro fertilization test; format: cell-based; conditions: sperms fused with prostasomes obtained with or without pretreatment by regulator, reacted with oocytes, 36 hours; FIG. 6
# Procedure: In order to perform the in vitro fertilization test, the method of Ren et al. (Ren et al., Nature 413, 603-609 (2001)) was modified and used. A 10 to 12-week-old female mouse was injected with pregnant mare serum gonadotropin (PMSG) (5 IU; Sigma-Aldrich). After 48 hours, the mouse was injected with human chorionic gonadotropin (hCG) (5 IU; Sigma-Aldrich). After 14 hours of the last injection, uterine tubes were removed and perfused with IVF medium (Medicult, USA), and flown oocytes were collected using a low magnification microscope.
# The collected oocytes were resuspended in IVF medium and were cultured with prostasomes which were obtained in the presence or absence of the regulator of the intracellular calcium signaling second messenger, causing fertilization reaction. The heated mineral oil was overlaid on top of the medium to block the outside air. After 36 hours of the culture, the total number of oocytes contained in the culture medium was counted under a microscope, and cells above the two-cell stage were counted. The fertilization rate was calculated using the following formula. The case that the sperms that had undergone the same fusion process without prostasome treatment were cultured with about 15 oocytes was referred to as 100%. The results are illustrated in FIG. 6. […]
molecule,measurement,setting,value
COc1cc(CNC(=O)CCCC/C=C/C(C)C)ccc1O [capsaicin],"protein expression of HSP70, LAMP1 and Rab5","[1]; 50 μM capsaicin for 0-180 minutes, FIG. 4B",increased in a time-dependent manner
same,protein expression of HSP70,"[1]; capsaicin 0, 12.5, 25, 50, 100 and 200 μM for 3 hours, FIG. 4A",increased in a concentration-dependent manner
same,number of pups,C57BL/6 mice,increased
COc1ccc([C@H]2N[C@H](C(=O)O)Cc3c2[nH]c2ccccc32)cc1CN1CCN(c2ccccc2F)CC1 [Ned-19],HSP70 expression (KCl-induced) with antagonist,"[1]; 100 μg/ml heparin, 50 μM 8-Br-cADPR or 1 μM NED-19 preincubated 30 minutes, then 25 mM KCl 1 hour, FIG. 3",did not show the inhibitory effect
same,continuous increase of [Ca2+]i by KCl treatment,[2],not suppressed
"O=P(O)(O)O[C@@H]1[C@H](O)[C@H](O)[C@@H](OP(=O)(O)O)[C@H](OP(=O)(O)O)[C@H]1O [D-myo-IP3, D-myo-Inositol 1,4,5-triphosphate]",sperm motility rate,mouse sperms,doubling; also recorded: doubled
heparin,fertility (fertilization rate),mouse oocytes,reduced to be similar to that of the negative control
C1CCC[C@H]2CCCN3CC[C@@H](CCCCCC[C@@H]4CCCN5CC[C@@H](CC1)O[C@@H]45)O[C@@H]23 [Xestospongin C],continuous increase of [Ca2+]i by KCl treatment,[2],suppressed
same,fertility (fertilization rate),mouse oocytes,reduced to be similar to that of the negative control
[Cl-].[K+] [KCl],HSP70 expression,"[1]; 25 mM KCl alone without an antagonist, 1 hour, FIG. 3",increased
same,protein expression of HSP70 and LAMP1,"[1]; 25 mM KCl for 0, 10, 30, 60, 120 and 180 minutes, FIG. 1B",increased in a time-dependent manner
same,"protein expression of HSP70, Rab5 and LAMP1 (exosomal markers)","[1]; KCl 0, 5, 10, 25, 50 and 100 mM for 1 hour, FIG. 1A",increased in a concentration-dependent manner
same,intracellular calcium ([Ca2+]),"[2]; 120 μM KCl, FIG. 2A",rapidly increased
"N=c1c2nc(Br)n3c2ncn1C1OC(COP(=O)(O)OP(=O)(O)OCC2OC3C(O)C2O)C(O)C1O (centres unmarked) [8-br-cADPR, 8-Br-cADPR]",continuous increase of [Ca2+]i by KCl treatment,[2],suppressed
